Source: PubChem BioAssay AID330 (DTP/NCI, 2004)
Several values for one entry are separate records, joined by “and”; a condition that tells them apart may be missing. Equal entries are not always repeated. Toxic doses and inconclusive results are not listed. Peptide text beside a SMILES is read from it. * marks the point of attachment. Cbz = O=C(OCc1ccccc1)*; Bn = c1ccc(C*)cc1

Test system: P388 leukemia ip, CD2F1 mice, survival T/C
Experiment: NCI In Vivo Anticancer Drug Screen. Data for tumor model P388 Leukemia (intraperitoneal) in CD2F1 (CDF1) mice
Settings: endpoint: median survival time, higher = longer survival
Outline: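 Mice carrying the transplanted tumor received test compound or vehicle. Survival was recorded in each group, and the value is the treated-group measurement divided by that of the vehicle-treated control group.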

[1] = dose: 100.0 mg/kg/injection, schedule: Q04DX002 (ip), vehicle: saline with Tween-80
[2] = dose: 60.0 mg/kg/injection, schedule: Q01DX005 (ip), vehicle: saline with Tween-80
[3] = dose: 120.0 mg/kg/injection, schedule: Q01DX005 (ip), vehicle: saline with Tween-80
[4] = dose: 240.0 mg/kg/injection, schedule: Q01DX005 (ip), vehicle: saline with Tween-80
[5] = dose: 100.0 mg/kg/injection, schedule: Q01DX009 (ip), vehicle: saline
[6] = dose: 100.0 mg/kg/injection, schedule: Q01DX001 (ip), vehicle: saline with Tween-80
[7] = dose: 400.0 mg/kg/injection, schedule: Q01DX001 (ip), vehicle: saline with Tween-80
[8] = dose: 50.0 mg/kg/injection, schedule: Q01DX005 (ip), vehicle: Klucel (hydroxypropylcellulose) (HPC)
[9] = dose: 100.0 mg/kg/injection, schedule: Q01DX005 (ip), vehicle: Klucel (hydroxypropylcellulose) (HPC)
[10] = dose: 200.0 mg/kg/injection, schedule: Q01DX005 (ip), vehicle: Klucel (hydroxypropylcellulose) (HPC)
[11] = dose: 6.25 mg/kg/injection, schedule: Q01DX009 (ip), vehicle: Klucel (hydroxypropylcellulose) (HPC)
[12] = dose: 12.5 mg/kg/injection, schedule: Q01DX009 (ip), vehicle: Klucel (hydroxypropylcellulose) (HPC)
[13] = dose: 25.0 mg/kg/injection, schedule: Q01DX009 (ip), vehicle: Klucel (hydroxypropylcellulose) (HPC)
[14] = dose: 100.0 mg/kg/injection, schedule: Q04DX003 (ip), vehicle: saline with Tween-80
[15] = dose: 200.0 mg/kg/injection, schedule: Q04DX003 (ip), vehicle: saline with Tween-80
[16] = dose: 400.0 mg/kg/injection, schedule: Q04DX003 (ip), vehicle: saline with Tween-80

## CCCCCCCCCCCCOC1C=C(C)C(=O)O1 (configuration not stated)
[1]
  T/C: 100 % of control
dose: 200.0 mg/kg/injection, schedule: Q04DX002 (ip), vehicle: saline with Tween-80
  T/C: 101 % of control
dose: 400.0 mg/kg/injection, schedule: Q04DX002 (ip), vehicle: saline with Tween-80
  T/C: 100 % of control

## CC(=O)Oc1ccc2c3c1CCCN3CCC2
[2]
  T/C: 108 % of control
[3]
  T/C: 101 % of control
[4]
  T/C: 102 % of control

## CS(=O)(=O)c1cc(C(=O)O)cc(NCc2ccccc2)c1Oc1ccccc1
dose: 50.0 mg/kg/injection, schedule: Q01DX009 (ip), vehicle: saline with Tween-80
  T/C: 106 % of control
dose: 100.0 mg/kg/injection, schedule: Q01DX009 (ip), vehicle: saline with Tween-80
  T/C: 96 % of control
dose: 200.0 mg/kg/injection, schedule: Q01DX009 (ip), vehicle: saline with Tween-80
  T/C: 102 % of control

## CSC(=S)c1c(O)ccc2ccccc12
[1]
  T/C: 102 % of control

## COc1ccn(CC2(C)CO2)c(=O)n1 (configuration not stated)
dose: 60.0 mg/kg/injection, schedule: Q01DX005 (ip), vehicle: saline
  T/C: 103 % of control
dose: 120.0 mg/kg/injection, schedule: Q01DX005 (ip), vehicle: saline
  T/C: 106 % of control
dose: 240.0 mg/kg/injection, schedule: Q01DX005 (ip), vehicle: saline
  T/C: 104 % of control

## O=CN1CCCc2cc(C(=O)O)ccc21
dose: 50.0 mg/kg/injection, schedule: Q01DX001 (ip), vehicle: saline sonified
  T/C: 100 % of control
dose: 100.0 mg/kg/injection, schedule: Q01DX001 (ip), vehicle: saline sonified
  T/C: 100 % of control
dose: 200.0 mg/kg/injection, schedule: Q01DX001 (ip), vehicle: saline sonified
  T/C: 105 % of control

## COc1ccccc1N=N/C(=N\Nc1ccccc1OC)C(=O)Nc1ccccc1
dose: 6.25 mg/kg/injection, schedule: Q01DX009 (ip), vehicle: saline
  T/C: 89 % of control
dose: 12.5 mg/kg/injection, schedule: Q01DX009 (ip), vehicle: saline
  T/C: 91 % of control
dose: 25.0 mg/kg/injection, schedule: Q01DX009 (ip), vehicle: saline
  T/C: 90 % of control
[5]
  T/C: 93 % of control

## COC(=O)c1nn(Cc2ccccc2)cc1C=O
[2]
  T/C: 99 % of control
[3]
  T/C: 92 % of control
[4]
  T/C: 92 % of control

## CCN(CC)P(Cl)(C1=C(Cl)C(=O)C(C#N)=C(C#N)C1=O)(N(CC)CC)N(CC)CC
[6]
  T/C: 89 % of control
[7]
  T/C: 89 % of control

## NC1CCCCCCC1
dose: 50.0 mg/kg/injection, schedule: Q01DX005 (ip), vehicle: saline
  T/C: 94 % of control
dose: 100.0 mg/kg/injection, schedule: Q01DX005 (ip), vehicle: saline
  T/C: 103 % of control
dose: 200.0 mg/kg/injection, schedule: Q01DX005 (ip), vehicle: saline
  T/C: 117 % of control

## CC1(C)OC(=O)C(=Cc2ccc(-c3ccccc3[N+](=O)[O-])o2)C(=O)O1
[8]
  T/C: 92 % of control
[9]
  T/C: 105 % of control
[10]
  T/C: 100 % of control

## CC(C)CC(NC(=O)C(CSCc1ccccc1)NC(=O)OCc1ccccc1)C(N)=O (configuration not stated) (Cbz-Cys(Bn)-Leu-NH2; configuration not given here)
dose: 6.25 mg/kg/injection, schedule: Q01DX005 (ip), vehicle: Klucel (hydroxypropylcellulose) (HPC)
  T/C: 102 % of control
dose: 12.5 mg/kg/injection, schedule: Q01DX005 (ip), vehicle: Klucel (hydroxypropylcellulose) (HPC)
  T/C: 86 % of control
dose: 25.0 mg/kg/injection, schedule: Q01DX005 (ip), vehicle: Klucel (hydroxypropylcellulose) (HPC)
  T/C: 86 % of control

## C=CCSc1nc2ccc(N3C(=O)C=CC3=O)cc2s1
[11]
  T/C: 111 % of control
[12]
  T/C: 104 % of control and 113 % of control
[13]
  T/C: 108 % of control and 113 % of control

## COc1ccc2c(C)cc(N/N=C\c3cccc4ccccc34)nc2c1
[8]
  T/C: 98 % of control
[9]
  T/C: 93 % of control
[10]
  T/C: 106 % of control

## CCOC(=O)/C(=N\N=P(N(C)C)(N(C)C)N(C)C)[As](C)C
dose: 50.0 mg/kg/injection, schedule: Q01DX009 (ip), vehicle: saline
  T/C: 103 % of control
[5]
  T/C: 99 % of control

## O=C(NCCCC(CCCNC(=O)c1ccccc1)(C(=O)O)C(=O)O)c1ccccc1
[8]
  T/C: 106 % of control
[9]
  T/C: 109 % of control
[10]
  T/C: 104 % of control

## CCC[CH2][Sn]([CH2]CCC)([O]C(=O)/C=C/c1ccccc1)[O]C(=O)/C=C/c1ccccc1
dose: 1.56 mg/kg/injection, schedule: Q04DX003 (ip), vehicle: DMSO
  T/C: 87 % of control
dose: 3.12 mg/kg/injection, schedule: Q04DX003 (ip), vehicle: DMSO
  T/C: 89 % of control
dose: 6.25 mg/kg/injection, schedule: Q04DX003 (ip), vehicle: DMSO
  T/C: 89 % of control
dose: 12.5 mg/kg/injection, schedule: Q04DX003 (ip), vehicle: saline with Tween-80
  T/C: 117 % of control

## CCN(CC)CCOCCOC1(C)CCC(C(C)C)CC1 (configuration not stated)
dose: 50.0 mg/kg/injection, schedule: Q01DX005 (ip), vehicle: suspension in saline
  T/C: 108 % of control
dose: 100.0 mg/kg/injection, schedule: Q01DX005 (ip), vehicle: suspension in saline
  T/C: 106 % of control

## O=C1CCCCCC1c1ccccc1 (configuration not stated)
[14]
  T/C: 104 % of control
[15]
  T/C: 104 % of control
[16]
  T/C: 109 % of control

## CC(/C=N/Nc1ccccc1)=N\N=c1/scc(-c2ccccc2)n1Cc1ccccc1
[6]
  T/C: 93 % of control
dose: 200.0 mg/kg/injection, schedule: Q01DX001 (ip), vehicle: saline with Tween-80
  T/C: 97 % of control
[7]
  T/C: 93 % of control

## CCOC(=O)c1ccc(NN=NC(C)(C)C)cc1
dose: 12.5 mg/kg/injection, schedule: Q01DX009 (ip), vehicle: distilled water + Tween-80
  T/C: 91 % of control
dose: 25.0 mg/kg/injection, schedule: Q01DX009 (ip), vehicle: distilled water + Tween-80
  T/C: 93 % of control
dose: 50.0 mg/kg/injection, schedule: Q01DX009 (ip), vehicle: distilled water + Tween-80
  T/C: 86 % of control
dose: 100.0 mg/kg/injection, schedule: Q01DX009 (ip), vehicle: distilled water + Tween-80
  T/C: 93 % of control
dose: 200.0 mg/kg/injection, schedule: Q01DX009 (ip), vehicle: distilled water + Tween-80
  T/C: 86 % of control

## COc1ccccc1N=Nc1cccc[c]1[Hg][Cl]
dose: 9.0 mg/kg/injection, schedule: Q01DX009 (ip), vehicle: saline
  T/C: 107 % of control and 113 % of control and 118 % of control
dose: 18.0 mg/kg/injection, schedule: Q01DX009 (ip), vehicle: saline
  T/C: 114 % of control and 119 % of control
dose: 36.0 mg/kg/injection, schedule: Q01DX009 (ip), vehicle: saline
  T/C: 102 % of control and 113 % of control

## COC(=O)C1(N2CCOCC2)CCC([C@@H](c2ccccc2)C(C)[N+](=O)[O-])C1 (some centres not stated)
dose: 60.0 mg/kg/injection, schedule: Q01DX005 (ip), vehicle: Klucel (hydroxypropylcellulose) (HPC)
  T/C: 100 % of control
dose: 120.0 mg/kg/injection, schedule: Q01DX005 (ip), vehicle: Klucel (hydroxypropylcellulose) (HPC)
  T/C: 98 % of control
dose: 240.0 mg/kg/injection, schedule: Q01DX005 (ip), vehicle: Klucel (hydroxypropylcellulose) (HPC)
  T/C: 99 % of control

## O=C1Nc2c(Cl)cc(Cl)cc2/C1=N/N=C/c1ccccc1O
dose: 50.0 mg/kg/injection, schedule: Q01DX005 (ip), vehicle: saline with Tween-80
  T/C: 91 % of control

## Cc1cccc(/C(=C/c2ccc([N+](=O)[O-])cc2)C(=O)Nc2ccc(S(=O)(=O)F)cc2)c1
[2]
  T/C: 93 % of control
[3]
  T/C: 98 % of control

## CCCSCC
[14]
  T/C: 104 % of control
[15]
  T/C: 100 % of control
[16]
  T/C: 100 % of control

## CN1C(=O)NC2(CCCCC2)C1=O
[8]
  T/C: 105 % of control
[9]
  T/C: 100 % of control
[10]
  T/C: 100 % of control

## CC(C)(C)SC(=S)SCC(=O)c1ccc(Cl)cc1
[2]
  T/C: 99 % of control
[3]
  T/C: 98 % of control
[4]
  T/C: 100 % of control

## CN1CCCSC1=S
[11]
  T/C: 111 % of control
[12]
  T/C: 97 % of control
[13]
  T/C: 106 % of control

## O=C(O)/C=N/NS(=O)(=O)c1cccs1
dose: 12.5 mg/kg/injection, schedule: Q01DX009 (ip), vehicle: other
  T/C: 119 % of control

## CN(C)CCCN=c1c2ccccc2n(O)c2cccc([N+](=O)[O-])c12
dose: 1.56 mg/kg/injection, schedule: Q01DX009 (ip), vehicle: saline with Tween-80
  T/C: 123 % of control
dose: 3.12 mg/kg/injection, schedule: Q01DX009 (ip), vehicle: saline
  T/C: 117 % of control
dose: 12.5 mg/kg/injection, schedule: Q01DX009 (ip), vehicle: saline with Tween-80
  T/C: 104 % of control
